# According to PubChem BioAssay AID1963967 (Molecular Pharmacology Branch, DTP, NCI, 2024):
# Test system: 855422-203-R-J1-PDC spheroids with HUVEC/MSC, viability
# Assay: Anticancer human tumor 855422-203-R-J1-PDC patient-derived bladder carcinoma cell line growth inhibition [PI3K]
# Settings: for viability, T/C: stronger effect = lower value
# Outline: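 Targeted small molecules plus PI3K inhibitors, half-log dose series from Cmax (default top 10 microM), were applied to heterotypic spheroids of cancer cells with HUVEC and MSCs. Viability indicated growth inhibition.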
# [1] = curve of first compound, second compound 0.0316 µM
# [2] = curve of first compound, second compound 0.1 µM
# [3] = curve of first compound, second compound 0.316 µM
# [4] = curve of first compound, second compound 1 µM
# [5] = curve of first compound, second compound 3.16 µM
# [6] = curve of first compound, second compound 10 µM
# [7] = second compound 0.0316 µM, first compound 0.0316 µM
# [8] = second compound 0.0316 µM, first compound 0.1 µM
# [9] = second compound 0.0316 µM, first compound 0.316 µM
# [10] = second compound 0.0316 µM, first compound 1 µM
# [11] = second compound 0.1 µM, first compound 0.0316 µM
# [12] = second compound 0.1 µM, first compound 0.1 µM
# [13] = second compound 0.1 µM, first compound 0.316 µM
# [14] = second compound 0.1 µM, first compound 1 µM
# [15] = second compound 0.316 µM, first compound 0.0316 µM
# [16] = second compound 0.316 µM, first compound 0.1 µM
# [17] = second compound 0.316 µM, first compound 0.316 µM
# [18] = second compound 0.316 µM, first compound 1 µM
# [19] = second compound 1 µM, first compound 0.0316 µM
# [20] = second compound 1 µM, first compound 0.1 µM
# [21] = second compound 1 µM, first compound 0.316 µM
# [22] = second compound 1 µM, first compound 1 µM
# [23] = second compound 3.16 µM, first compound 0.0316 µM
# [24] = second compound 3.16 µM, first compound 0.1 µM
# [25] = second compound 3.16 µM, first compound 0.316 µM
# [26] = second compound 3.16 µM, first compound 1 µM
# [27] = second compound 10 µM, first compound 0.0316 µM
# [28] = second compound 10 µM, first compound 0.1 µM
# [29] = second compound 10 µM, first compound 0.316 µM
# [30] = second compound 10 µM, first compound 1 µM
# [31] = second compound 0.0316 µM, first compound 0.00316 µM
# [32] = second compound 0.0316 µM, first compound 0.01 µM
# [33] = second compound 0.1 µM, first compound 0.00316 µM
# [34] = second compound 0.1 µM, first compound 0.01 µM
# [35] = second compound 0.316 µM, first compound 0.00316 µM
# [36] = second compound 0.316 µM, first compound 0.01 µM
# [37] = second compound 1 µM, first compound 0.00316 µM
# [38] = second compound 1 µM, first compound 0.01 µM
# [39] = second compound 3.16 µM, first compound 0.00316 µM
# [40] = second compound 3.16 µM, first compound 0.01 µM
# [41] = second compound 10 µM, first compound 0.00316 µM
# [42] = second compound 10 µM, first compound 0.01 µM
# 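Further: agents incubated with spheroids for one week before read-out.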
# 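Wherever viability, T/C is given: 100% = DMSO vehicle-treated control wells.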
compound,measurement,setting,value
C[C@@H](NC(=O)c1ncnc(N)c1Cl)c1ncc(C(=O)Nc2cc(C(F)(F)F)c(Cl)cn2)s1 + Cc1nc(NC(=O)N2CCCC2C(N)=O)sc1-c1ccnc(C(C)(C)C(F)(F)F)c1,IC50,[1],> 10000 nM
same,IC50,[2],> 10000 nM
same,IC50,[3],> 10000 nM
same,IC50,[4],4570 nM
same,IC50,[5],< 31.6 nM
same,IC50,[6],< 31.6 nM
same,"viability, T/C",[7],97.8%
same,"viability, T/C",[8],85.9%
same,"viability, T/C",[9],118%
same,"viability, T/C",[10],100%
same,"viability, T/C","second compound 0.0316 µM, first compound 3.16 µM",118%
same,"viability, T/C","second compound 0.0316 µM, first compound 10 µM",109%
same,"viability, T/C",[11],72.7%
same,"viability, T/C",[12],86.8%
same,"viability, T/C",[13],104%
same,"viability, T/C",[14],91.2%
same,"viability, T/C","second compound 0.1 µM, first compound 3.16 µM",111%
same,"viability, T/C","second compound 0.1 µM, first compound 10 µM",93.4%
same,"viability, T/C",[15],73.1%
same,"viability, T/C",[16],85.9%
same,"viability, T/C",[17],94.3%
same,"viability, T/C",[18],85.8%
same,"viability, T/C","second compound 0.316 µM, first compound 3.16 µM",94.6%
same,"viability, T/C","second compound 0.316 µM, first compound 10 µM",60.9%
same,"viability, T/C",[19],70.1%
same,"viability, T/C",[20],67.2%
same,"viability, T/C",[21],51.2%
same,"viability, T/C",[22],68.6%
same,"viability, T/C","second compound 1 µM, first compound 3.16 µM",62.3%
same,"viability, T/C","second compound 1 µM, first compound 10 µM",23.4%
same,"viability, T/C",[23],39.3%
same,"viability, T/C",[24],44.6%
same,"viability, T/C",[25],30.9%
same,"viability, T/C",[26],42.8%
same,"viability, T/C","second compound 3.16 µM, first compound 3.16 µM",33.5%
same,"viability, T/C","second compound 3.16 µM, first compound 10 µM",14.3%
same,"viability, T/C",[27],25%
same,"viability, T/C",[28],18.9%
same,"viability, T/C",[29],24.3%
same,"viability, T/C",[30],18.8%
same,"viability, T/C","second compound 10 µM, first compound 3.16 µM",11.7%
same,"viability, T/C","second compound 10 µM, first compound 10 µM",4.33%
CC1(C)CCC(Nc2ncc(C(F)(F)F)c(-c3c[nH]c4c(P(C)(C)=O)c(C#N)ccc34)n2)CN1 (stereo not given),"viability, T/C",compound 0.0316 µM,29.6% [middle of 4 runs]
same,"viability, T/C",compound 0.1 µM,25% [middle of 4 runs]
same,"viability, T/C",compound 0.316 µM,27.7% [middle of 4 runs]
same,"viability, T/C",compound 1 µM,30.7% [middle of 4 runs]
same,"viability, T/C",compound 3.16 µM,28.9% [middle of 4 runs]
same,"viability, T/C",compound 10 µM,5.48% [middle of 4 runs]
same,IC50,curve of compound,< 31.6 nM
CC(=O)c1c(C)c2cnc(Nc3ccc(N4CCNCC4)cn3)nc2n(C2CCCC2)c1=O + Cc1nc(NC(=O)N2CCCC2C(N)=O)sc1-c1ccnc(C(C)(C)C(F)(F)F)c1,IC50,[1],> 100 nM
same,IC50,[2],> 100 nM
same,IC50,[3],> 100 nM
same,IC50,[4],51.7 nM
same,IC50,[5],< 0.316 nM
same,IC50,[6],< 0.316 nM
same,"viability, T/C","second compound 0.0316 µM, first compound 0.000316 µM",103%
same,"viability, T/C","second compound 0.0316 µM, first compound 0.001 µM",94.1%
same,"viability, T/C",[31],111%
same,"viability, T/C",[32],112%
same,"viability, T/C",[7],102%
same,"viability, T/C",[8],85.3%
same,"viability, T/C","second compound 0.1 µM, first compound 0.000316 µM",106%
same,"viability, T/C","second compound 0.1 µM, first compound 0.001 µM",97.8%
same,"viability, T/C",[33],109%
same,"viability, T/C",[34],98.3%
same,"viability, T/C",[11],96.3%
same,"viability, T/C",[12],76.7%
same,"viability, T/C","second compound 0.316 µM, first compound 0.000316 µM",91.7%
same,"viability, T/C","second compound 0.316 µM, first compound 0.001 µM",92.5%
same,"viability, T/C",[35],97.3%
same,"viability, T/C",[36],90.7%
same,"viability, T/C",[15],90.9%
same,"viability, T/C",[16],58%
same,"viability, T/C","second compound 1 µM, first compound 0.000316 µM",69.4%
same,"viability, T/C","second compound 1 µM, first compound 0.001 µM",78.2%
same,"viability, T/C",[37],72.8%
same,"viability, T/C",[38],75.5%
same,"viability, T/C",[19],60.5%
same,"viability, T/C",[20],33%
same,"viability, T/C","second compound 3.16 µM, first compound 0.000316 µM",44.1%
same,"viability, T/C","second compound 3.16 µM, first compound 0.001 µM",46.9%
same,"viability, T/C",[39],42.7%
same,"viability, T/C",[40],41.3%
same,"viability, T/C",[23],34.5%
same,"viability, T/C",[24],18.2%
same,"viability, T/C","second compound 10 µM, first compound 0.000316 µM",25.3%
same,"viability, T/C","second compound 10 µM, first compound 0.001 µM",24%
same,"viability, T/C",[41],24.1%
same,"viability, T/C",[42],23%
same,"viability, T/C",[27],19.3%
same,"viability, T/C",[28],10.7%
CC(Nc1ncnc2nc[nH]c12)c1cc2cccc(Cl)c2c(=O)n1-c1ccccc1 (stereo not given),"viability, T/C",compound 0.0316 µM,107% [middle of 8 runs]
same,"viability, T/C",compound 0.1 µM,108% [middle of 8 runs]
same,"viability, T/C",compound 0.316 µM,115% [middle of 8 runs]
same,"viability, T/C",compound 1 µM,107% [middle of 8 runs]
same,"viability, T/C",compound 3.16 µM,98.8% [middle of 8 runs]
same,"viability, T/C",compound 10 µM,86.2% [middle of 8 runs]
same,IC50,"compound alone, run of 05/09/2023",> 10000 nM
CCN1CCN(Cc2ccc(Nc3ncc(F)c(-c4cc(F)c5nc(C)n(C(C)C)c5c4)n3)nc2)CC1 + Cc1nc(NC(=O)N2CCCC2C(N)=O)sc1-c1ccnc(C(C)(C)C(F)(F)F)c1,IC50,[1],558 nM
same,IC50,[2],816 nM
same,IC50,[3],141 nM
same,IC50,[4],12 nM
same,IC50,[5],< 3.16 nM
same,IC50,[6],< 3.16 nM
same,"viability, T/C",[31],102%
same,"viability, T/C",[32],80.5%
same,"viability, T/C",[7],97.1%
same,"viability, T/C",[8],70.4%
same,"viability, T/C",[9],60.1%
same,"viability, T/C",[10],40.6%
same,"viability, T/C",[33],99.9%
same,"viability, T/C",[34],90.3%
same,"viability, T/C",[11],86%
same,"viability, T/C",[12],67.7%
same,"viability, T/C",[13],60.6%
same,"viability, T/C",[14],47.7%
same,"viability, T/C",[35],80.3%
same,"viability, T/C",[36],79.7%
same,"viability, T/C",[15],65.1%
same,"viability, T/C",[16],54.9%
same,"viability, T/C",[17],40.4%
same,"viability, T/C",[18],28.2%
same,"viability, T/C",[37],57.2%
same,"viability, T/C",[38],56.2%
same,"viability, T/C",[19],35.2%
same,"viability, T/C",[20],34.7%
same,"viability, T/C",[21],22%
same,"viability, T/C",[22],20.2%
same,"viability, T/C",[39],37.1%
same,"viability, T/C",[40],36.4%
same,"viability, T/C",[23],20.3%
same,"viability, T/C",[24],18.8%
same,"viability, T/C",[25],15.4%
same,"viability, T/C",[26],16.1%
same,"viability, T/C",[41],18.5%
same,"viability, T/C",[42],12.4%
same,"viability, T/C",[27],13.6%
same,"viability, T/C",[28],12.1%
same,"viability, T/C",[29],9.73%
same,"viability, T/C",[30],11.2%
